# In patent US20220388964A1 (HiberCell, Inc., priority 2019, published 2022):
# Biological target: GCN2 (Homo sapiens, UniProt Q9P2K8)
# Test: TR-FRET biochemical assay for inhibition of GCN2 (Example 106, for Example 1-4BB)
# Conditions: Table 8
# Sequence of GCN2 (Q9P2K8 whole entry): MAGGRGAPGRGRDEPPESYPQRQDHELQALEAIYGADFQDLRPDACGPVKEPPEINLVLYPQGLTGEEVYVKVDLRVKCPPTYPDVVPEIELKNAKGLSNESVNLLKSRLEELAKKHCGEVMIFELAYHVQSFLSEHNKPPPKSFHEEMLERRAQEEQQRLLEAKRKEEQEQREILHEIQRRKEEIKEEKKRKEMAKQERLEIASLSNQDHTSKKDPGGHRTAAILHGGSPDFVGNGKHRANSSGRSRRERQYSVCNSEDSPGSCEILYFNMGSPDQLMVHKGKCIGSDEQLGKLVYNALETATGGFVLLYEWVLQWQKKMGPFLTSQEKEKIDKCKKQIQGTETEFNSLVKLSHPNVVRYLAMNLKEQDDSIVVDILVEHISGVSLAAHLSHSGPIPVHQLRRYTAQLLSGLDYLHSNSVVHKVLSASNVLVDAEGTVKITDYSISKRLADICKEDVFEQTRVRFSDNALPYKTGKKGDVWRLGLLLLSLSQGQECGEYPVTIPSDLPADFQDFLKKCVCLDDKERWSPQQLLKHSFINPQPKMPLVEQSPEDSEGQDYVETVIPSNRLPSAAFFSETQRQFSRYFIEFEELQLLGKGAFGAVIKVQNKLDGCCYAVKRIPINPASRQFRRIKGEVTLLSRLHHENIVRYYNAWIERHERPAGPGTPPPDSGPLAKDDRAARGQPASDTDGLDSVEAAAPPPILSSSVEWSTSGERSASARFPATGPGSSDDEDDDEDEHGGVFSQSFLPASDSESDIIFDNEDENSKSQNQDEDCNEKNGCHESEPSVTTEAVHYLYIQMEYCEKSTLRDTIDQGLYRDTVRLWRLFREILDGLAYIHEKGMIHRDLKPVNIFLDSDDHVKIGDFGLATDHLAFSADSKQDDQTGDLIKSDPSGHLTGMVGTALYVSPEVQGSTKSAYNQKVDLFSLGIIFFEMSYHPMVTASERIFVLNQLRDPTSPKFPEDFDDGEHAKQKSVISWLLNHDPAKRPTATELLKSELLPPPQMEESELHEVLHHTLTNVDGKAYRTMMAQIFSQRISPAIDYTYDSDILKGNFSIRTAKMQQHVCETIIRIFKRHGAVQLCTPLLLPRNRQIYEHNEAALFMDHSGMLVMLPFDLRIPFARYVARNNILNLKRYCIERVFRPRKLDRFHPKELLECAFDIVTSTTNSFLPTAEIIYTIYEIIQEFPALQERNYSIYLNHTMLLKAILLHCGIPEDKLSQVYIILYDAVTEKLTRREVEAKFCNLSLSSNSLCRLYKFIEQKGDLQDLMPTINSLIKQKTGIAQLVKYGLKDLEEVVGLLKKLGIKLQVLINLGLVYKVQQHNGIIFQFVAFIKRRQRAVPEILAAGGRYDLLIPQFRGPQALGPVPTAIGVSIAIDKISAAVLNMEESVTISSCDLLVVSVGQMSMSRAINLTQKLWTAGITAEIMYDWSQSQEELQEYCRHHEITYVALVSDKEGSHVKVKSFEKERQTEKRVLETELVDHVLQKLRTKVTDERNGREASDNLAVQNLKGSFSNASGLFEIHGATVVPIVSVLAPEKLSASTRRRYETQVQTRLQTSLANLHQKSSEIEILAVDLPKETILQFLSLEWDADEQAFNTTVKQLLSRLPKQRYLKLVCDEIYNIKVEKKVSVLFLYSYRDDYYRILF
row,IC50,SMILES
1,< 500 nM,"N#Cc1cccc(S(=O)(=O)Nc2ccc(F)c(-c3ccc4c(-c5ncc[nH]5)n[nH]c4c3F)c2F)c1 [Example 2BQ, 3-cyano-N-(2,4-difluoro-3-(7-fluoro-3-(1H-imidazol-2-yl)-1H-indazol-6-yl)phenyl)-benzenesulfonamide]"
2,< 500 nM,"COc1ncc(Cl)cc1S(=O)(=O)Nc1ncnc(-c2ccc3c(-c4ncc[nH]4)n[nH]c3c2F)c1F [Example 2AK, 5-chloro-N-(5-fluoro-6-(7-fluoro-3-(1H-imidazol-2-yl)-1H-indazol-6-yl)pyrimidin-4-yl)-2-methoxypyridine-3-sulfonamide]"
3,2500 to 10000 nM,"CC(C)c1cccc(S(=O)(=O)Nc2ccc(F)c(-c3ccc4c(-c5ncc[nH]5)n[nH]c4c3F)c2F)c1 [Example 2L, N-(2,4-difluoro-3-(7-fluoro-3-(1H-imidazol-2-yl)-1H-indazol-6-yl)phenyl)-3-isopropyl-benzenesulfonamide]"
4,< 500 nM,"O=S(=O)(Nc1ccc(F)c(-c2ccc3c(-c4ncc[nH]4)n[nH]c3c2F)c1F)c1cc(Cl)ccc1CO [Example 2BW, 5-chloro-N-(2,4-difluoro-3-(7-fluoro-3-(1H-imidazol-2-yl)-1H-indazol-6-yl)phenyl)-2-(hydroxyl-methyl)benzene-sulfonamide]"
5,500 to 2500 nM,"Cc1nn(C)cc1S(=O)(=O)Nc1ccc(F)c(-c2ccc3c(-c4ncc[nH]4)n[nH]c3c2F)c1F [Example 2I, N-(2,4-difluoro-3-(7-fluoro-3-(1H-imidazol-2-yl)-1H-indazol-6-yl)phenyl)-1,3-dimethyl-1H-pyrazole-4-sulfonamide]"
6,> 10000 nM,"Cc1oncc1S(=O)(=O)Nc1ccc(F)c(-c2ccc3c(-c4ncc[nH]4)n[nH]c3c2F)c1F [Example 2AE, N-(2,4-difluoro-3-(7-fluoro-3-(1H-imidazol-2-yl)-1H-indazol-6-yl)phenyl)-5-methylisoxazole-4-sulfonamide]"
7,500 to 2500 nM,"COc1ncc(Cl)cc1S(=O)(=O)Nc1ccc(F)c(-c2ccc3cn[nH]c3c2)c1F [Example 2BY, 5-chloro-N-(2,4-difluoro-3-(1H-indazol-6-yl)-phenyl)-2-methoxypyridine-3-sulfonamide]"
8,500 to 2500 nM,"O=S(=O)(Nc1ccc(F)c(-c2ccc3c(-c4ncc[nH]4)n[nH]c3c2F)c1F)c1ccc(F)c(F)c1 [Example 2BO, N-(2,4-difluoro-3-(7-fluoro-3-(1H-imidazol-2-yl)-1H-indazol-6-yl)phenyl)-3,4-difluorobenzenesulfonamide]"
9,< 500 nM,"COc1ncc(F)cc1S(=O)(=O)Nc1ccc(F)c(-c2ccc3c(-c4ncc[nH]4)n[nH]c3c2F)c1F [Example 2V, 5-fluoro-N-(2,4-difluoro-3-(7-fluoro-3-(1H-imidazol-2-yl)-1H-indazol-6-yl)phenyl)-2-methoxy-pyridine-3-sulfonamide]"
10,500 to 2500 nM,"Cc1ccc(S(=O)(=O)Nc2ccc(F)c(-c3ccc4c(-c5ncc[nH]5)n[nH]c4c3F)c2F)cc1 [Example 1, N-(2,4-difluoro-3-(7-fluoro-3-(1H-imidazol-2-yl)-1H-indazol-6-yl)phenyl)-4-methylbenzenesulfonamide]"
11,< 500 nM,"COc1cccc(S(=O)(=O)Nc2ccc(F)c(-c3ccc4c(-c5ncc[nH]5)n[nH]c4c3F)c2F)c1 [Example 2F, N-(2,4-difluoro-3-(7-fluoro-3-(1H-imidazol-2-yl)-1H-indazol-6-yl)phenyl)-3-methoxy-benzene-sulfonamide]"

# Same assay, conditions: Table 9
row,IC50,SMILES
1,2500 to 10000 nM,"COc1ccc(NS(=O)(=O)c2cc(F)cnc2OC)c(F)c1-c1ccc2c(C(=O)NCCCO)n[nH]c2c1F [Example 25, 7-Fluoro-6-(2-fluoro-3-((5-fluoro-2-methoxypyridine)-3-sulfonamido)-6-methoxyphenyl)-N-(3-hydroxypropyl)-1H-indazole-3-carboxamide]"
2,< 500 nM,"COc1ncc(F)cc1S(=O)(=O)Nc1ccc(F)c(-c2ccc3c(C(=O)NC4CCN(C)CC4)n[nH]c3c2F)c1F [Example 3AJ, 6-(2,6-difluoro-3-((5-fluoro-2-methoxypyridine)-3-sulfonamido)phenyl)-7-fluoro-N-(1-methylpiperidin-4-yl)-1H-indazole-3-carboxamide]"
3,> 10000 nM,"COc1ncc(F)cc1S(=O)(=O)Nc1ncc(F)c(-c2ccc3c(C(N)=O)n[nH]c3c2)c1F [Example 3P, 6-(3,5-difluoro-2-((5-fluoro-2-methoxypyridine)-3-sulfonamido)pyridin-4-yl)-1H-indazole-3-carboxamide]"
4,< 500 nM,"COc1ncc(F)cc1S(=O)(=O)Nc1cc(F)cc(-c2ccc3c(C(=O)NCCCN(C)C)n[nH]c3c2F)c1F [Example 3BK, 6-(3-((5-fluoro-2-methoxy-pyridine)-3-sulfonamido)-2,5-difluorophenyl)-N-(3-(dimethylamino)propyl)-7-fluoro-1H-indazole-3-carboxamide]"
5,< 500 nM,"COc1ncc(Cl)cc1S(=O)(=O)Nc1ccc(F)c(-c2ccc3c(C(=O)Nc4cn[nH]c4)n[nH]c3c2F)c1F [Example 3CQ, 6-(3-((5-chloro-2-methoxy-pyridine)-3-sulfonamido)-2,6-difluorophenyl)-7-fluoro-N-(1H-pyrazol-4-yl)-1H-indazole-3-carboxamide]"
6,500 to 2500 nM,"COc1ncc(F)cc1S(=O)(=O)Nc1nccc(-c2ccc3c(C(N)=O)n[nH]c3c2F)c1F [Example 3Q, 6-(3-fluoro-2-((5-fluoro-2-methoxypyridine)-3-sulfonamido)pyridin-4-yl)-7-fluoro-1H-indazole-3-carboxamide]"
7,< 500 nM,"COc1ncc(F)cc1S(=O)(=O)Nc1ccc(F)c(-c2ccc3c(C(N)=O)n[nH]c3c2F)c1F [Example 3T, 6-(2,6-difluoro-3-((5-fluoro-2-methoxypyridine)-3-sulfonamido)phenyl)-7-fluoro-1H-indazole-3-carboxamide]"
8,< 500 nM,"Cc1ccc(S(=O)(=O)Nc2ccc(F)c(-c3ccc4c(C(=O)Nc5cnoc5)n[nH]c4c3F)c2F)c(C)n1 [Example 3DG, 6-(3-((2,6-dimethylpyridine)-3-sulfonamido)-2,6-difluoro-phenyl)-7-fluoro-N-(isoxazol-4-yl)-1H-indazole-3-carboxamide]"
9,> 10000 nM,"COc1ncc(F)cc1S(=O)(=O)Nc1cc(C#N)cc(-c2ccc3c(-c4ncc[nH]4)n[nH]c3c2F)c1F [Example 3CB, N-(5-cyano-2-fluoro-3-(7-fluoro-3-(1H-imidazol-2-yl)-1H-indazol-6-yl)phenyl)-5-fluoro-2-methoxypyridine-3-sulfonamide]"
10,< 500 nM,"COc1ncc(C#N)cc1S(=O)(=O)Nc1ccc(F)c(-c2ccc3c(-c4ncc[nH]4)n[nH]c3c2F)c1F [Example 3DJ, 5-cyano-N-(2,4-difluoro-3-(7-fluoro-3-(1H-imidazol-2-yl)-1H-indazol-6-yl)phenyl)-2-methoxypyridine-3-sulfonamide]"
11,< 500 nM,"COc1ncc(F)cc1S(=O)(=O)Nc1ncc(F)c(-c2ccc3c(-c4nc(CO)c[nH]4)n[nH]c3c2F)c1F [Example 3K, N-(3,5-difluoro-4-(7-fluoro-3-(4-(hydroxymethyl)-1H-imidazol-2-yl)-1H-indazol-6-yl)pyridin-2-yl)-5-fluoro-2-methoxypyridine-3-sulfonamide]"
12,< 500 nM,"COc1ncc(Cl)cc1S(=O)(=O)Nc1ccc(F)c(-c2ccc3c(C(=O)NC[C@H]4CCCN4C)n[nH]c3c2F)c1F [Example 3D, 6-(3-((5-chloro-2-methoxy-pyridine)-3-sulfonamido)-2,6-difluorophenyl)-7-fluoro-N-(((R)-1-methylpyrrolidin-2-yl)methyl)-1H-indazole-3-carboxamide]"
13,< 500 nM,"COc1ncc(Cl)cc1S(=O)(=O)Nc1ccc(F)c(-c2ccc3c(C(=O)Nc4c[nH]nc4C)n[nH]c3c2F)c1F [Example 3CS, 6-(3-((5-chloro-2-methoxy-pyridine)-3-sulfonamido)-2,6-difluorophenyl)-7-fluoro-N-(3-methyl-1H-pyrazol-4-yl)-1H-indazole-3-carboxamide]"
14,< 500 nM,"COc1nc(C)c(Cl)cc1S(=O)(=O)Nc1ccc(F)c(-c2ccc3c(C(=O)NCCCN(C)C)n[nH]c3c2F)c1F [Example 3DN, 6-(3-((5-chloro-2-methoxy-6-methylpyridine)-3-sulfon-amido)-2,6-difluorophenyl)-N-(3-(dimethylamino)propyl)-7-fluoro-1H-indazole-3-carboxamide]"
15,< 500 nM,"COc1nscc1S(=O)(=O)Nc1cc(F)cc(-c2ccc3c(-c4ncc[nH]4)n[nH]c3c2F)c1F [Example 3BZ, N-(2,5-difluoro-3-(7-fluoro-3-(1H-imidazol-2-yl)-1H-indazol-6-yl)phenyl)-3-methoxyisothiazole-4-sulfonamide]"
16,> 10000 nM,"CNC(=O)c1n[nH]c2c(F)c(-c3c(F)cnc(NS(=O)(=O)c4cc(F)cnc4C)c3F)ccc12 [Example 24, 6-(3,5-Difluoro-2-((5-fluoro-2-methylpyridine)-3-sulfonamido)pyridin-4-yl)-7-fluoro-N-methyl-1H-indazole-3-carboxamide]"
17,< 500 nM,"O=S(=O)(Nc1ccc(F)c(-c2ccc3c(-c4ncc[nH]4)n[nH]c3c2F)c1F)c1cc(F)cc(CO)c1Cl [Example 3CH, 2-chloro-N-(2,4-difluoro-3-(7-fluoro-3-(1H-imidazol-2-yl)-1H-indazol-6-yl)phenyl)-5-fluoro-3-(hydroxymethyl)-benzenesulfonamide]"
18,< 500 nM,"O=S(=O)(Nc1ncc(F)c(-c2ccc3c(-c4ncc[nH]4)n[nH]c3c2F)c1F)c1cc(F)ccc1F [Example 3H, N-(3,5-difIuoro-4-(7-fluoro-3-(1H-imidazol-2-yl)-1H-indazol-6-yl)pyridin-2-yl)-2,5-difluorobenzene-sulfonamide]"
19,500 to 2500 nM,"COc1ncc(C#N)cc1S(=O)(=O)Nc1ccc(F)c(-c2ccc3c(C(N)=O)n[nH]c3c2F)c1F [Example 3CY, 6-(3-((5-cyano-2-methoxy-pyridine)-3-sulfonamido)-2,6-difluorophenyl)-7-fluoro-1H-indazole-3-carboxamide]"
20,500 to 2500 nM,"COc1ncccc1S(=O)(=O)Nc1ccc(F)c(-c2ccc3c(C(=O)NCCCO)n[nH]c3c2F)c1F [Example 3BI, 6-(2,6-difluoro-3-((2-methoxypyridine)-3-sulfonamido)phenyl)-7-fluoro-N-(3-hydroxypropyl)-1H-indazole-3-carboxamide]"
